One data set deals with Histamine H1 receptor (Homo sapiens, UniProt P35367). Put plainly: Binding affinity to human histamine H1 receptor.
For data set [1], the system named is Mus musculus. In words: Effect on spontaneous locomotor activity in mouse at 30 mg/kg, ip. Format: ADME, organism-based. Also noted: dose 30 mg/kg, route intraperitoneal. As to conditions: in vivo.
In data set [2] the test system is Mus musculus. In words: Antipsychotic-like activity in orally dosed NMRI mouse assessed as reduction in MK801-induced locomotor activity dosed 15 to 30 mins before administration of MK801 measured for 60 mins. In kind it is functional. The conditions noted are these: po, read-out: MED.
Data set [3] deals with Mus musculus. Put plainly: Effect on startle response in mouse at 3 to 30 mg/kg, po. In kind it is ADME, organism-based. More on the design: dose 3-30 mg/kg, route oral. As to conditions: in vivo.
The target in data set [4] is T1, Adrenergic receptor alpha-2 (Homo sapiens, UniProt P08913+P18825+P18089).
T1 sequence (P08913 whole entry): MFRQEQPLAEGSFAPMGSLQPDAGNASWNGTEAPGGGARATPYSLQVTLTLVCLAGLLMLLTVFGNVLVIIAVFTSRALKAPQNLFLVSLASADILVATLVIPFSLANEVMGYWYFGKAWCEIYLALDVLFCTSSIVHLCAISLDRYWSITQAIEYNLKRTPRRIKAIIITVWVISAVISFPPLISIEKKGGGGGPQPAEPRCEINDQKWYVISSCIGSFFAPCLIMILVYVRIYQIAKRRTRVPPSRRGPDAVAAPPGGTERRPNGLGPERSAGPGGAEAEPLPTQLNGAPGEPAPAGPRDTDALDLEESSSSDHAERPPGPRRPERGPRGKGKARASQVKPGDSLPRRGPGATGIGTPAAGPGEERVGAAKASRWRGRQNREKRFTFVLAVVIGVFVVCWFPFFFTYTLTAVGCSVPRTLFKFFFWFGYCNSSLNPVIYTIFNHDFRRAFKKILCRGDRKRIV
T1 sequence (P18825 whole entry): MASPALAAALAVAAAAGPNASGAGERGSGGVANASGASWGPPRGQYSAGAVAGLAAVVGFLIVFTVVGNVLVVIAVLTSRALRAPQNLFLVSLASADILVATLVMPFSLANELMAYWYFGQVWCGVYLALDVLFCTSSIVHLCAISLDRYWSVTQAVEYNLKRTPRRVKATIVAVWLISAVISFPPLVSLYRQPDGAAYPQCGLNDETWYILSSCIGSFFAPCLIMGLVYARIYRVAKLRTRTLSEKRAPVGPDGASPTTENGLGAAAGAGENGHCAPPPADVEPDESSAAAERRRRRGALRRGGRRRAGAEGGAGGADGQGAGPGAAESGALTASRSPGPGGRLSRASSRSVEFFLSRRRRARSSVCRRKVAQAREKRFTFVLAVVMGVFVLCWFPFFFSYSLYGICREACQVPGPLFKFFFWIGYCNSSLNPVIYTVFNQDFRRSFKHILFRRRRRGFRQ
T1 sequence (P18089 whole entry): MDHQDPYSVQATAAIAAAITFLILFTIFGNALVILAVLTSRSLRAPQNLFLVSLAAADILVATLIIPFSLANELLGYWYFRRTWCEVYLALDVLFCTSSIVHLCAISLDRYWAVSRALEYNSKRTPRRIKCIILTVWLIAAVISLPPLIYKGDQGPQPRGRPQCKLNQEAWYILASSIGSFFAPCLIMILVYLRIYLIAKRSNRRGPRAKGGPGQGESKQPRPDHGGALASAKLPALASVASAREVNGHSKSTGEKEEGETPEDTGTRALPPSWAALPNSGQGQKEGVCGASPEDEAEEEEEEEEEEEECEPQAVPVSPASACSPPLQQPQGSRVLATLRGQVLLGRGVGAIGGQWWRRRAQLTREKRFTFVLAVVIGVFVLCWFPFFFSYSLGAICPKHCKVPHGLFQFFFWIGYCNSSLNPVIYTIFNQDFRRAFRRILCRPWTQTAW
In words: Binding affinity to alpha2 adrenoreceptor (unknown origin). Format: protein assay.

Data set [5] has as its target T2, D(3) dopamine receptor (Homo sapiens, UniProt P35462).
Description: Binding affinity to dopamine D3 receptor (unknown origin)
In the next data set the target is D(2) dopamine receptor (Homo sapiens, UniProt P14416).
Data set [6] relates to Mus musculus. Put plainly: Reduction in startle response in mouse at 30 mg/kg, po dosed 30 mins before testing. In kind it is ADME, organism-based. Also noted: dose 30 mg/kg, route oral. As to conditions: in vivo, 0.5 h.
Data set [7] deals with T3, hERG (KCNH2) (Homo sapiens, UniProt Q12809). In words: Inhibition of human ERG at 10 uM by whole cell based electrophysiology assay.
Data set [8] has as its system Heart. In words: Cardiotoxicity in Langendorff-perfused Sprague-Dawley rat heart assessed as effect on left ventricle pressure up to 10 uM. In kind it is toxicity, tissue-based.
The subject of data set [9] is Mus musculus. Put plainly: Toxicity in mouse assessed as induction of memory impairment by measuring […] to enter dark compartment at 60 mg/kg, po administered 30 mins before training by passive avoidance test. Format: organism-based. Also noted: dose 60 mg/kg, route oral. The conditions noted are these: in vivo, 0.5 h.
Data set [10] concerns the target T4, 5-hydroxytryptamine receptor 1A (Homo sapiens, UniProt P08908).
T4 sequence (P08908 whole entry): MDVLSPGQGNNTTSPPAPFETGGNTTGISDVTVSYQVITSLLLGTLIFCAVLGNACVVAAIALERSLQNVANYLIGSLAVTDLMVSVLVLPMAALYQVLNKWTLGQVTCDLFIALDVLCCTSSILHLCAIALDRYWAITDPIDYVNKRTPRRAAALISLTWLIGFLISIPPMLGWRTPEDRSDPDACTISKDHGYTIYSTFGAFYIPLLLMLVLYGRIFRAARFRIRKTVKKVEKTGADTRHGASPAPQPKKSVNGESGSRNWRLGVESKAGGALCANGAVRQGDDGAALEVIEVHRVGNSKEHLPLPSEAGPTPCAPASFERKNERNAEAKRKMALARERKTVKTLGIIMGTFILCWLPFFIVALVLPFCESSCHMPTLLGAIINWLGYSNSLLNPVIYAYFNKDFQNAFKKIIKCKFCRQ
Description: Binding affinity to 5HT1A receptor (unknown origin)

The target in data set [11] is T2, D(3) dopamine receptor. In words: Antagonist activity at human dopamine D3 receptor expressed in CHO-K1 cells assessed as reduction in dopamine-induced response by [35S]GTPgammaS binding assay. Format: functional, cell-based. In general terms: GTPγS is a poorly hydrolysed GTP analogue; its binding reports G protein activation.
In data set [12] the test system is Heart. Put plainly: Cardiotoxicity in Langendorff-perfused Sprague-Dawley rat heart assessed as effect on coronary perfusion pressure up to 10 uM. Format: toxicity, tissue-based.
For data set [13], the target named is T4, 5-hydroxytryptamine receptor 1A. Put plainly: Agonist activity at human 5HT1A receptor (unknown origin) expressed in CHO cells by [35S]GTPgammaS binding assay. Format: functional, cell-based.
For data set [14], the system named is Mus musculus. In words: Antipsychotic-like activity in orally dosed NMRI mouse assessed as reduction in methamphetamine-induced locomotor activity dosed 15 to 30 mins before administration of methamphetamine measured for 60 mins. In kind it is functional. The conditions noted are these: po, read-out: MED.
The target of data set [15] is T3, hERG (KCNH2). In words: Inhibition of human ERG at 3 uM by whole cell based electrophysiology assay.
Data set [16] deals with Mus musculus. Put plainly: Effect on spontaneous exploratory locomotor activity in orally dosed NMRI mouse measured for 30 mins with activity counts each 5 mins. Format: ADME, organism-based. The conditions noted are these: in vivo, po, 0.5 h.
In data set [17] the target is T3, hERG (KCNH2). Put plainly: Inhibition of human ERG at 1 uM by whole cell based electrophysiology assay.
Data set [18] concerns Mus musculus. In words: Toxicity in mouse assessed as induction of memory impairment by measuring […] to enter dark compartment at 60 mg/kg, po administered 30 mins before training measured 24 hrs after acquisition trail by passive avoidance test. The conditions noted are these: in vivo. Format: organism-based. Also noted: dose 60 mg/kg, route oral.

The term Ki denotes a measure of affinity in units of concentration, obtained from inhibition or displacement. By inhibition is commonly meant the change of the read-out against control, counted positive when it falls. As a reminder, the IC50 is the point on the concentration scale where inhibition reaches its midpoint. As usually defined, the EC50 is the concentration needed to bring the measured effect to its halfway point. Low readings indicate higher potency in that assay, high ones lower potency in that assay.

The structures appear in SMILES notation.

T3 sequence (Q12809 whole entry, the tested form may be a part): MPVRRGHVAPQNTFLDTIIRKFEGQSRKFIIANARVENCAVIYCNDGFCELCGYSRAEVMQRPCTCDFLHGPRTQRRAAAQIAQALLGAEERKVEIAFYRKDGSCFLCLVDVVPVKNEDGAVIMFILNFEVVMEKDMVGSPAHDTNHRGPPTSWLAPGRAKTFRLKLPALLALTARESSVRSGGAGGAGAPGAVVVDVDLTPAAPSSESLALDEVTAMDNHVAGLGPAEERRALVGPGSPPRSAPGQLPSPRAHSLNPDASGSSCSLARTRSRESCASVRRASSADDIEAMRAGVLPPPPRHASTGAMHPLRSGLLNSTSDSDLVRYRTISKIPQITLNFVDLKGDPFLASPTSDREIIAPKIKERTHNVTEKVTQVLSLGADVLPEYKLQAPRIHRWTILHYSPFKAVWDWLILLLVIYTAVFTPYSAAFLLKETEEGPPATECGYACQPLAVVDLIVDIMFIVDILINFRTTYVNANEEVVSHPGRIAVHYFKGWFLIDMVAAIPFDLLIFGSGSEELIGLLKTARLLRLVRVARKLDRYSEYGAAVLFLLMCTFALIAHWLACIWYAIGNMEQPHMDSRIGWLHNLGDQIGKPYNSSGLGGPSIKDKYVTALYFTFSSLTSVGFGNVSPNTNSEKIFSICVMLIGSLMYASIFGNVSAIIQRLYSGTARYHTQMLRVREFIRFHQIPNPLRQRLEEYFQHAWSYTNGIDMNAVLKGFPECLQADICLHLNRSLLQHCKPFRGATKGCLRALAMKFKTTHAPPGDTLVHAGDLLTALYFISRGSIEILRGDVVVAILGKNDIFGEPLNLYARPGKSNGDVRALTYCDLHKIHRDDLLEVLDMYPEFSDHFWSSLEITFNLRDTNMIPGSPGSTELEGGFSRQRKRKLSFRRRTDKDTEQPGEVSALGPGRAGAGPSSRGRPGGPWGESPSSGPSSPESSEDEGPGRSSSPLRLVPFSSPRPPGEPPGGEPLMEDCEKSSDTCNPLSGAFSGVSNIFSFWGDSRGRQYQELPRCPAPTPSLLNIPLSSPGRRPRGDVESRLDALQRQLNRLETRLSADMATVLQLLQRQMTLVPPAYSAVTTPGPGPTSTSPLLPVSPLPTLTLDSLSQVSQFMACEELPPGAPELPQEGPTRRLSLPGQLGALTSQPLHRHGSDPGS
T2 sequence (P35462 whole entry): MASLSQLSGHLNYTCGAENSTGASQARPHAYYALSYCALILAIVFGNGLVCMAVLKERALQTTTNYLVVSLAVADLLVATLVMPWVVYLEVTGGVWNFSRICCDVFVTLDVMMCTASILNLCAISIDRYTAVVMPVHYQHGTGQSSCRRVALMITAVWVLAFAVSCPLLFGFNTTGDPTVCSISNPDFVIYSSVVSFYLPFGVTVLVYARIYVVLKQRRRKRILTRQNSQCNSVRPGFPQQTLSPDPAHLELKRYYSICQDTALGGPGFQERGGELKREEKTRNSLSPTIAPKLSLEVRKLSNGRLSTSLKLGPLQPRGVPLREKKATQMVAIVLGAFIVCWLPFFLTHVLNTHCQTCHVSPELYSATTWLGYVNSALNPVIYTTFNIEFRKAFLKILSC
Chain of D(2) dopamine receptor (P14416 whole entry): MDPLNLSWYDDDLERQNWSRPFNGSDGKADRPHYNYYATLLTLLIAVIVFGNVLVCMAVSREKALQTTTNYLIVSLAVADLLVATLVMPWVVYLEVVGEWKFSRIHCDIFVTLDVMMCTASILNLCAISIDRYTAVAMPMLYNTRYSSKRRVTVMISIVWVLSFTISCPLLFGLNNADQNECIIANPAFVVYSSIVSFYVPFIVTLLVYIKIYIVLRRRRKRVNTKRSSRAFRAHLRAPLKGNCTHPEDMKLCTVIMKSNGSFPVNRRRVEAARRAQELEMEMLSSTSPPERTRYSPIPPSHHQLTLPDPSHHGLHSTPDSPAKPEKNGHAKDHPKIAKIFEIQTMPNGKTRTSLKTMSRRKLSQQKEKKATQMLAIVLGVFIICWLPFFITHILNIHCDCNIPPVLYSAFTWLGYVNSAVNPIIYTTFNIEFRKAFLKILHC
Chain of Histamine H1 receptor (P35367 whole entry): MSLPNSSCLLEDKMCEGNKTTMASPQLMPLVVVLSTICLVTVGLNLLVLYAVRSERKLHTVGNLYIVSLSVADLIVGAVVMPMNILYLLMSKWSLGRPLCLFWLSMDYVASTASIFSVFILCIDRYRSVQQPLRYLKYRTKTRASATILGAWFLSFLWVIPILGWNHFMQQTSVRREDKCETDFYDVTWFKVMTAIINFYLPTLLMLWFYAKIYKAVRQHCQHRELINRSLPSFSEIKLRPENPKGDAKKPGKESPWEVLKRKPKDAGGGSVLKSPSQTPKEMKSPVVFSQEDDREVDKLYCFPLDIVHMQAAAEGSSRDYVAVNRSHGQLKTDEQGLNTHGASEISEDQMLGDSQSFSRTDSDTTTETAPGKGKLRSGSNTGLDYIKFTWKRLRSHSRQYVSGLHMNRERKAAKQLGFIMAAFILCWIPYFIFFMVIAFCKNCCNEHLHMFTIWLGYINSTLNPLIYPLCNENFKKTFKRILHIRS
Description for D(2) dopamine receptor: Binding affinity to dopamine D2 receptor (unknown origin)

Regarding `O=C(NCCCCN1CCN(c2ccccc2)CC1)c1ccc2ncccc2c1`, the Ki was 110 nM on Histamine H1 receptor; 150 nM in data set [4]; 0.6 nM on D(3) dopamine receptor [5]; more than 1000 nM at D(2) dopamine receptor; 99 nM in [10]. In addition, the Activity entry is recorded as “Toxic” in the data set on Mus musculus [1]; “Non-toxic” with Mus musculus [3]; “Toxic” in the data set with Mus musculus [6]; “Non-toxic” with Heart [8]; “Toxic” in the data set on Mus musculus [9]; “Non-toxic” in the data set on Heart [12]. Also, the Activity result in the data set with Mus musculus [18] was “Non-toxic”. Besides, the minimal effective dose in the data set on Mus musculus [2] is 10 mg/kg; with Mus musculus [14] it was more than 30 mg/kg. Besides, the inhibition at 10 µM against hERG (KCNH2) [7] turned out to be 47%. For the same molecule, the IC50 at D(3) dopamine receptor [11] was found to be 258 nM. In data set [13], this molecule displayed a 50% effective concentration (EC50) of 1800 nM. At hERG (KCNH2) [15], this molecule came in with an inhibition at 3 µM of 24%. The MED entry with Mus musculus [16] is “<= 3 mg kg-1”. On hERG (KCNH2) [17], this molecule displayed an inhibition at 1 µM of 10%.

Values taken from ChEMBL document CHEMBL3351528, “Targeting dopamine D3 and serotonin 5-HT1A and 5-HT2A receptors for developing effective antipsychotics: synthesis, biological characterization, and behavioral studies” (J Med Chem, 2014).
